Experimental data published in US10519207B2, “Compositions and methods for treating opioid tolerance” (priority 2015, dated 2019).

Columns and labels:
[1] = tested on: TNF; conditions: morphine tolerant animals; cited from earlier work
[2] = target: T1, solTNF (Mus musculus, UniProt P06804); conditions: systemic delivery; cited from earlier work
T1 construct: There are two active forms of TNF, soluble-TNF (solTNF) and transmembrane-TNF (tmTNF); host or cells: endogenous TNF of EAE animals
T1 sequence (P06804 80-235 limits assumed): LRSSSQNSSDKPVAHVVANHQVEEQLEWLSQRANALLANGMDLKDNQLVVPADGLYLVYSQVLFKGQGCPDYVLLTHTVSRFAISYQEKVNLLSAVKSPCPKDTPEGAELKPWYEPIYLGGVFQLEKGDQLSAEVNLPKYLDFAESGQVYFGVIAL

[3] = target: T2, soluble TNF (solTNF) (Rattus norvegicus, UniProt P16599); type: in vivo; conditions: 24 and 72 hours after intra-PAG administration
T2 construct: soluble TNF which is formed after cleavage of tmTNF by ADAM17/TNF-αlpha Converting Enzyme (TACE); from tissue; host or cells: living rat, ventrolateral periaqueductal gray (vlPAG) / CNS
Procedure: Male Sprague Dawley rats (250-350 g; Charles River; MA) were pair-housed on a 12:12 hour light:dark cycle (lights on at 7:00 am) with ad libitum access to food and water. The Institutional Animal Care and Use Committee at Georgia State University approved all studies.
Rats were implanted with bilateral cannula aimed at the ventrolateral PAG (vlPAG) and received bilateral infusions of lenti-DN-TNF or lenti-GFP while under surgical anesthesia.

[4] = tested on: EAAC1 mRNA; assay: In situ hybridization of neuronal EAAC1 mRNA in caudal vlPAG; type: in vivo, rat
[5] = tested on: TNF mRNA; assay: qPCR of TNF mRNA in vlPAG; type: in vivo, rat; conditions: chronic morphine with or without XPro1595
Procedure: (§1) Gene expression is reported as the ratio of the gene of interest to Gapdh, and are normalized to the Vehicle+Saline condition. Changes in mRNA between groups were assessed using an ANOVA on ranks (Kruskal-Wallis), and Mann Whitney U post-hoc comparisons (SPSS). Data are expressed as median; p<0.05 was considered significant.

[6] = tested on: IL-6 mRNA; assay: qPCR of IL-6 mRNA in vlPAG; type: in vivo, rat; conditions: chronic morphine with or without XPro1595
Procedure: as §1

[7] = tested on: IL-10 mRNA; assay: qPCR of IL-10 mRNA in vlPAG; type: in vivo, rat; conditions: chronic morphine with or without XPro1595
Procedure: as §1

T2 sequence (P16599 80-235): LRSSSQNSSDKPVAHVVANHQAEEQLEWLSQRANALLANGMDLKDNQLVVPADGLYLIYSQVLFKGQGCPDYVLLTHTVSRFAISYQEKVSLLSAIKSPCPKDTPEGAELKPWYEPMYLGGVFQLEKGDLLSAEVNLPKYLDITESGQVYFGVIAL
Chain of TNF (P16599 80-235 limits assumed): as the sequence (P16599 80-235) above

## etanercept
[1]
  effect on acute morphine inhibition of tail flick reflex: restores the ability of morphine to acutely inhibit tail flick reflex
[2]
  outcome in EAE: neither therapeutic nor neuroprotective

## lipopolysaccharide [LPS]
[3]
  baseline paw withdrawal latencies: no effect
[4]; chronic vlPAG microinfusions of LPS
  vlPAG EAAC1 mRNA: did not alter

## CN1CC[C@]23c4c5ccc(O)c4O[C@H]2[C@@H](O)C=C[C@H]3[C@H]1C5 [morphine]
[5]
  vlPAG TNF gene expression: not statistically significant
[6]
  vlPAG IL-6 mRNA: No significant change
[7]
  vlPAG IL-10 mRNA: No significant change
[4]; systemic morphine for 3 days
  vlPAG EAAC1 mRNA expression: No significant effect
